Measurements: PMC13401508 (Pharmacological research, 2026)

How the values were obtained:
[1] = system: NF-κB p65; assay: NF-κB p65 transcription factor activation assay; assay type: cell-based, human; details: PC3-ML, ARCaP-M and C4–2B cells, 24 hrs, vs vehicle
Procedure: NF-κB p65 transcription factor assay kits were obtained from Cayman Chemical, USA and performed following the manufacturer’s instructions.
Fig. 2. […] NF-κB activity was measured by absorbance at 450 nm (n = 3 ± SD; * p < 0.05). […] C) PDGF-AA protein levels were determined in the three PC cell line-derived conditioned media by ELISA. In both panels: n = 3 ± SD; * p < 0.05.

[2] = system: HS5, RWPE-1, C4–2B, PC3-ML, ARCaP-M and RM1-BM cells; assay: Colony formation (clonal) assay; assay type: cell-based, human and murine; details: 50 μM, six repeated doses over a two-week period, tumor and non-tumor cells
Procedure: 200 cells/well were seeded in triplicate in 6-well plates. […] The colonies were fixed with ice-cold Methanol and stained with 0.5% crystal violet and counted.
(§1) Fig. 1. Primary characterization of IVMT-Rx-4. A) Chemical structure (upper panel) and synthesis scheme (lower panel). […] All proteins were extracted, and Western blotting was performed immediately after heating. Quantifications were obtained in the absence (control) or presence of IVMT-Rx-4 and values are presented as percentage of RT (room temperature) normalized for the experimental groups (control, IVMT-Rx-4). SOD (Superoxide dismutase) was used as an endogenous control. […] Colonies were stained with crystal violet and counted (n = 3 ± SD; ns: non-significant). […] Invaded cells were stained with crystal violet. Top panel: representative photograph of invaded cells under different experimental settings. Bottom panel: graphical representation of number of invaded cells/field for different cell lines (n = 3 ± SD; * p < 0.05).

[3] = Particle size distribution (PSD); assay type: physicochemical; details: wet method, water
Procedure: About 15 mg of sample was pre-dispersed using 1 mL of water. After mixing completely, PSD was analyzed with the parameters in Table below.

[4] = system: PC3-ML, ARCaP-M, C4–2B, RM1-BM and TRAMP-C2 cells; assay: Boyden chamber / Transwell Matrigel invasion assay; assay type: cell-based, human and murine; details: 25 μM, 18 hrs, all five cell lines
Procedure: Boyden chamber assays were performed using Corning® BioCoat® Matrigel® Invasion Chambers obtained from Corning Inc., USA. In brief, cells were seeded on the Matrigel-coated upper chamber and treated with IVMT-Rx-4. Invaded cells were fixed, stained and counted after 18 hrs. as previously described.
as §1

[5] = system: Caco-2 cell monolayer; assay: Caco-2 bidirectional permeability; assay type: in vitro ADME; details: 10 µM
Procedure: To prepare the Caco-2 cell monolayer, 50 µL and 25 µL of cell culture medium (Dulbecco’s modified Eagle’s medium, DMEM) were added to each well of the inserts and reservoir, respectively, within a 96-well HTS Transwell plate (Corning, NY, USA). The plate was incubated at 37 °C and 5% CO2 for 1 hr. prior to cell seeding. Caco-2 cells were then diluted to 6.86 x 10^5 cells/mL using culture medium and 50 µL of cell suspension were seeded into the plate, and incubated at 37 °C, 5% CO2, and 95% relative humidity for 14-18 days. During this time, the cells were cultivated with media replacements occurring every other day. Cells were allowed to grow and differentiate and the integrity of the Caco-2 cell monolayer was evaluated by measurement of transepithelial electrical resistance (TEER) using a Millicell Epithelial Volt-Ohm measuring system (Millipore, USA).
Prior to the assay, the established monolayer was washed twice with pre-warmed HBSS and incubated at 37 °C for 30 minutes. A bidirectional permeability assay was performed simultaneously using two different plates as described previously (Supplementary Reference: Cui Y, Desevaux C, Truebenbach I, Sieger P, Klinder K, Long A, Sauer A. A Bidirectional Permeability Assay for beyond Rule of 5 Compounds. Pharmaceutics. 2021 Jul 27;13(8):1146. doi: 10.3390/pharmaceutics13081146. PMID: 34452112; PMCID: PMC8400635.): one assessed permeability from the apical to the basolateral side, while the other assessed from the basolateral to the apical side. […] For apical to basolateral permeability, 108 µL of working solution was loaded into the apical compartment, whereas 308 µL of working solution was added to the basolateral compartment for basolateral to apical permeability. The samples collected from donor and receiver compartment were mixed with 72 µL transport buffer and 240 µL of acetonitrile containing internal standard (IS, 100 nM alprazolam, 200 nM Caffeine and 100 nM tolbutamide), centrifuged at 1000 rpm for 10 minutes. […] In doing so, the following equations were used: […]
Where, Papp is apparent permeability (cm/s x 10^-6), dQ/dt is the rate of drug transport (pmol/second), A is the surface area of the membrane (cm^2), and D0 is the initial donor concentration (nM; pmol/cm^3). (B-A) indicates basolateral to apical permeation, where (A-B) indicates apical to basolateral.

[6] = target: T1, CYP3A4 (Homo sapiens, UniProt P08684); assay: Drug-substrate based CYP inhibition, 3A4; assay type: in vitro ADME; details: human liver microsomes
T1 construct: in the presence of human liver microsomes; from tissue; host or cells: human liver microsomes
T1 sequence (P08684 whole entry): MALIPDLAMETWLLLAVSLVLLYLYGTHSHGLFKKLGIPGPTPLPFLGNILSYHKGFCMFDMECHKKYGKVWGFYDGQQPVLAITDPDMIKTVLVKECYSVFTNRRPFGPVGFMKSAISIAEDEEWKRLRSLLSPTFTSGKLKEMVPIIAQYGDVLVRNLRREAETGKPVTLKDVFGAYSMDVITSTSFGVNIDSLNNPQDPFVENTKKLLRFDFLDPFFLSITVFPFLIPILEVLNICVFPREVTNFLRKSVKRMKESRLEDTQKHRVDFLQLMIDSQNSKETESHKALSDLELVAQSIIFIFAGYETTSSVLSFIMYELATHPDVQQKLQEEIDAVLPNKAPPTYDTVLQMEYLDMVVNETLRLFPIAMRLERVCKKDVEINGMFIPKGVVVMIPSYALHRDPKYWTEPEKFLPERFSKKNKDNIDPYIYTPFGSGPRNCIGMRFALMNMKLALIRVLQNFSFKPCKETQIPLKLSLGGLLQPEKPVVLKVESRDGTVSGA
Procedure: IVMT-Rx-4 was incubated with selective probe substrates of each CYP isoform in the presence of human liver microsomes. The formation of metabolite was quantified using LC-MS/MS methods. The extent of inhibition was assessed by calculating the remaining enzyme activity and percent inhibition based on analyte-to-internal standard area ratios, using the following equations:
Area Ratio = Peak AreaAnalyte / Peak AreaInternal Standard
Remaining Activity (%) = Area Ratiotest compound / Area Ratiovehicle ×100
Inhibition (%) = 100 ̶ Remaining Activity (%)

[7] = Solubility study in bio-relevant media, buffers and solvents; assay type: physicochemical
[8] = Visible toxicity in animals; details: in vivo
[9] = system: MST; assay: Western blot, PDGF-AA activated HS5 cells: MST; assay type: cell-based, human; details: PDGF-AA 10 ng/ML, 25 μM, 24 hrs
[10] = system: Salmonella typhimurium TA98 & TA100; assay: Mini-Ames assay; assay type: cell-based; details: with or without S9 mix
Procedure: The mini-AMES assay was performed in Pharmaron, Inc. following the standard protocol as developed by the in-house scientist. […] The assay was conducted in the presence or absence of the S9 mix along with concurrent negative/solvent control and positive controls.

[11] = system: PDGFRα; assay: Western blot, PDGF-AA activated HS5 cells: PDGFRα; assay type: cell-based, human; details: PDGF-AA 10 ng/ML, 25 μM, 24 hrs

## Cc1cc(NC(=O)CCc2nnc(-c3ccccc3)o2)c(C)cc1N [IVMT-Rx-4]
[1]
  NF-κB activity: decreased NF-κB activity
[2]
  cell proliferation (colony formation): did not inhibit cell proliferation
[3]
  Dv [90], average value: 58.6 μm
[4]
  cellular invasion: effectively suppressed cellular invasion
[5]; apical to basolateral
  Caco-2 Bidirectional A-B: 21.5 ×10⁻⁶ cm/s
[5]; basolateral to apical
  Caco-2 Bidirectional B-A: 19.9 ×10⁻⁶ cm/s
[6]
  IC50: ~10 µM
[7]; FaSSIF, FeSSIF and SIF
  solubility in FaSSIF, FeSSIF and SIF: low solubility
[7]; MeOH, EtOH, CH2Cl2, Acetone and MeCN
  solubility in organic solvents: relatively good solubility
[7]; SGF
  solubility in SGF: relative high solubility
[7]; after the solubility test, both media
  stability in SGF and pH 1.2 buffer: degradation was observed
[7]; hexane
  solubility in hexane: almost insoluble
[7]; solubility increased with a decrease of pH
  pH dependence of solubility: pH dependent
[7]; water
  solubility in water: low solubility
[8]
  visible toxicity in animals: without provoking any visible toxicity
[9]
  phosphorylation of MST: promoted the phosphorylation of MST
[10]; 1.5 to 1000 μg/well
  cytotoxicity to tester strains in Mini-Ames assay: No obvious cytotoxicity
[10]
  Mini-Ames Assay (2-strain option: TA98 & TA100): Weakly positive for 2 strains
[11]
  PDGFRα activation (phosphorylated PDGFRα): downregulation of phosphorylated PDGFRα
